Data from patent publication US7135578B2, “Iminocyclitol inhibitors of hexoaminidase and glycosidase” (The Scripps Research Institute, priority 1999, dated 2006).
Entries after “also recorded” stand apart in the source; their conditions may differ. Values belong to the molecule of their own block, whether it stands above or below them.

Columns and labels:
[1] = test system: β-glucosidase; assay: Inhibition of β-glucosidase, kinetic analysis by capillary zone electrophoresis; assay type: biochemical; details: sweet almond enzyme, CZE
Method: (§1) Initially, the total volume of assay solution was reduced because this is the only way to reduce the amount of enzyme and substrate used in the assay. The 96-well microtiter plate with a round bottom was used for the assay, and each well was sealed with tape. Thus, the assay was examined and carried out in a total volume of as little as 20 μL containing 1.76 mU of a glycosidase such as β-N-acetylhexosaminidase P. The electrophoresis was carried out using 50 mM borate buffer (pH 9.2˜10.2) as the electrolyte and the progress was monitored at 37° C. The injected volume of approximately 38.4 nL of a reaction mixture contained as little as 3.8 pmol of the substrate p-nitrophenyl (PNP) glycoside, thus the amount of PNP detected was less than 10^−12 mol. The peak corresponding to the p-nitrophenol, which appeared at around 6.5 min. in these conditions, was monitored at 405 nm.
(§2) The inhibition studies of compounds 1–9 against α- and β-glucosidases (from Saccharomyces sp. and sweet almond, respectively) were carried out. PNP-glycosides of the parent sugars were used as the substrates throughout the assay. The apparent Km and Vmax values for each substrate were calculated from the double-reciplocal plot of standard 1/v −1/[substrate] curve.^18 The Ki values were determined from a replot of the slopes of Lineweaver-Burk plots vs. the inhibitor concentrations.
Kinetic analyssis of β-glucosidase: To a 1-mL disposable cuvette was added 950 μL of 0.1 M acetate buffer (pH 5.0) solution, 20 μL of inhibitor solution, and 20 μL of 20 mM p-nitrophenyl-β-D-glucopyranoside solution. The solution was well mixed and warmed at 37° C. for 5 min, then 20 μL of the enzyme solution, which was dissolved in ice-cold Tris-HCl buffer (pH 7.8) and diluted with 10 mM phosphate buffer (pH 7.0) containing 0.2% of BSA, was added. The reaction was monitored at 400 nm on a Beckmann DU-70 spectrophotometer for 15 seconds, and the initial rate of hydrolysis was calculated. The same procedure was repeated with three other substrate concentrations. After the initial rates were accumulated, the corresponding Lineweaver-Burk plot at that inhibitor concentration was constructed.
(§3) Condition of capillary zone electrophoresis: Assays were performed on a Waters Quanta 4000E capillary electrophoresis system, which was equipped with a 53 cm×75 μm fused i.d. silica capillary. Detection was carried out by on-column measurement of u.v. absorption at 405 nm at 7.5 cm from the cathode. The capillary used was pretreated or regenerated with 0.1 M KOH (2 min) and elution buffer before each injection. Samples were loaded by means of hydrostatic pressure at 10 cm height for 30 sec (ca 38.4 nl). […] Pherograms were recorded on Millennium 2010 system from Millipore Corp. […]

[2] = test system: α-glucosidase; assay: Inhibition of α-glucosidase, kinetic analysis by capillary zone electrophoresis; assay type: biochemical; details: Saccharomyces sp. enzyme, CZE
Method: as §1, §2
Kinetic analysis of α-glucosidase: To a 1-mL disposable cuvette was added 950 μL of 0.1 M phosphate buffer (pH 7.0) solution, 20 μL of inhibitor solution, and 20 μL of 20 mM p-nitrophenyl-α-D-glucopyranoside solution. The solution was well mixed and warmed at 37° C. for 5 min, then 20 μL of the enzyme solution in 10 mM phosphate buffer (pH 7.0) containing 0.2% of BSA was added. The reaction was monitored at 400 nm on Beckmann DU-70 spectrophotometer for 15 seconds, and the initial rate of hydrolysis was calculated. The same procedure was repeated with three other substrate concentrations. After the initial rates were accumulated, the corresponding Lineweaver-Burk plot at that inhibitor concentration was constructed.
as §3

[3] = target: T1, β-N-acetylhexosaminidase A (Homo sapiens, UniProt P06865+P07686); assay: β-N-acetylhexosaminidase A inhibition with MUG and MUGS substrates (FIGS. 13A, 13B); assay type: biochemical
T1 sequence (P06865 89-529): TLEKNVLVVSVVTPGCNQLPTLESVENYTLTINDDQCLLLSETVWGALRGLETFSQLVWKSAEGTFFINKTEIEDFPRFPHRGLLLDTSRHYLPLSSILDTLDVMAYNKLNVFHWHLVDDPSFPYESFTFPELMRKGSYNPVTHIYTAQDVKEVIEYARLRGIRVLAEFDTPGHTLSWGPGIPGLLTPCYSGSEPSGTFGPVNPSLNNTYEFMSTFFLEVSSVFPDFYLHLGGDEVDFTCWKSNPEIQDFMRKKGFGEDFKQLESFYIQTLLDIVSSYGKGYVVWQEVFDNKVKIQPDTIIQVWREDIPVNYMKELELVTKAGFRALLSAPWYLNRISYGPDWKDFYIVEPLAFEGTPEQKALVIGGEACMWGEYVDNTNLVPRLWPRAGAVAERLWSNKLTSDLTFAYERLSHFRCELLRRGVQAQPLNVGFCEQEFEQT
T1 sequence (P06865 23-74 limits assumed): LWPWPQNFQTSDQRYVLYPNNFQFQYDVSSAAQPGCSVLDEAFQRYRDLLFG
T1 sequence (P07686 315-556 limits assumed): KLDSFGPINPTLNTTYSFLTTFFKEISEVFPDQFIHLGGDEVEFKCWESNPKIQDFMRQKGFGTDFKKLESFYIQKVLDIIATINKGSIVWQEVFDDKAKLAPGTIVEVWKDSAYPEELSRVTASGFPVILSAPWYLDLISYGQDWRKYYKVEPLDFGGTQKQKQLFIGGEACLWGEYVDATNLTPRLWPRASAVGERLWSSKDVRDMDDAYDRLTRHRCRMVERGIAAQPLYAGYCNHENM
T1 sequence (P07686 122-311 limits assumed): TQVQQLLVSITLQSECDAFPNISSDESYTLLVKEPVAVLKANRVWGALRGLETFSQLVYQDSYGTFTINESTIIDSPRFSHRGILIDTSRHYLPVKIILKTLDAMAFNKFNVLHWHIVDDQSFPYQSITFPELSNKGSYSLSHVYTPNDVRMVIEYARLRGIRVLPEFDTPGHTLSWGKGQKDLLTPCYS
T1 sequence (P07686 50-107 limits assumed): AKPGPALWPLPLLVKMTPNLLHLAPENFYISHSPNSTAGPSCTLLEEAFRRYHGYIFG

[4] = target: β-N-acetylglucosaminidase; assay: Inhibition of β-N-acetylglucosaminidase, kinetic analysis by CZE; assay type: biochemical; details: β-N-acetylglucosaminidase from bovine kidney, substrate PNP-GlcNAc, replot of Lineweaver-Burk slopes
Method: as §1
as §2, with “concentrations. […]” for “concentrations.”

[5] = test system: β-N-acetylhexoaminidases; assay: Intracellular β-N-acetylhexoaminidases activity (FIG. 12); assay type: cell-based
[6] = test system: GAGs; assay: Whole cell assay of GAG concentration; assay type: cell-based
[7] = target: T1, β-N-acetylhexosaminidase A; assay: Inhibition of β-N-acetylhexosaminidase A from human placenta; assay type: biochemical; set-up: Kinetic analysis of β-N-acetylhexosaminidase from human placenta; purchased Sigma Chemical Co. (St. Louis, Mo., USA); host or cells: human placenta; details: β-N-acetylhexaoaminidases A from human placenta
Method: Condition of capillary zone electrophoresis: Assays were performed on a Waters Quanta 4000E capillary electrophoresis system, which was equipped with a 53 cm×75 μm fused i.d. silica capillary. Detection was carried out by on-column measurement of u.v. absorption at 405 nm at 7.5 cm from the cathode. The capillary used was pretreated or regenerated with 0.1 M KOH (2 min) and elution buffer before each injection. Samples were loaded by means of hydrostatic pressure at 10 cm height for 30 sec (ca 38.4 nl). Electrophoresis was performed at 20 kV using 50 mM sodium borate (pH 9.2 for β-N-Acetylglucosaminidase assays, pH 9.4 for β-glucosidase assays, pH 10.2 for α-glucosidase and β-N-acetylhexosaminidase assay) as electrolyte at a constant temperature of 37° C. Pherograms were recorded on Millennium 2010 system from Millipore Corp.
Kinetic analysis of β-N-acetylhexosaminidase from human placenta: Incubations were performed in a total volume of 20 μL. Unless otherwise stated, reaction mixtures contained 100 mM citrate buffer (pH 4.5), various amount of p-NP-GlcNAc (0.1–1.1 mM) and various amount of inhibitor with 3.35 mU of β-N-acetylhexosaminidase A and 1.76 mU of β-N-acetylhexosaminidase P. After preincubation for 10 min at 37° C., the reaction was started by the addition of β-N-Acetylglucosaminidase and the reaction mixture was incubated for 15 min at 37° C. […]

[8] = target: β-glucosidease from Almond; details: β-glucosidase from Almond, reported by Watson et al.; cited from earlier work
[9] = target: α-glucosidase from baker's yeast; details: reported by Watson et al.; cited from earlier work

inhibitory activity against α-glucosidase [2]: identical inhibitory activity to 2
Molecule: CC(=O)NC[C@@H](O)[C@H]1N[C@H](CO)[C@@H](O)[C@@H]1O [Compound 6]
inhibitory activity against β-glucosidase [1]: potent inhibitors; also recorded: identical inhibitory activity to 2

inhibitory activity against β-glucosidase [1]: weak inhibitor
inhibitory activity against α-glucosidase [2]: weak inhibitor
Molecule: OC[C@H](O)[C@H]1N[C@H](CO)[C@@H](O)[C@H]1O [Compound 1, (2R,3S,4R,5R,1′R)-5-hydroxymethyl-3,4-dihydroxy-2-(1′,2′-dihydroxy)ethyl-pyrrolidine]

Ki [4]: 0.11 µM
Ki [7]: 0.024 µM
Molecule: CC(=O)NC[C@@H]1[C@@H](O)[C@H](O)[C@@H](CO)N1C [Compound 4, (2R,3R,4R,5R)-N-Methyl-(2-acetamidomethyl-3,4-dihydroxy-5-hydroxymethyl)-pyrrolidine]
intracellular β-N-acetylhexaoaminidases activity [5]: dramatically decreased
GAG's intracellular concentration [6]: increase
GAGs' extracellular concentration [6]: decrease

inhibitory activity against α-glucosidase [2]: as effective as 2
Molecule: OC[C@H]1N[C@H](CNC[C@H]2N[C@H](CO)[C@@H](O)[C@@H]2O)[C@@H](O)[C@@H]1O [Compound 9, N,N-di-{[(2R,3R,4R,5R)-(3,4-hydroxy-5-hydroxymethyl)-pyrrolidine]methyl} amine]
inhibitory activity against β-glucosidase [1]: inhibitory activity at the same level as 1 and 7

More lines, now with the values behind:

Molecule: Sulfated NAG-thiozoline [Compound 108]
inhibition activity towards MUGS compared with MUG [3]: higher inhibition activity towards the 6-sulfate-4-methyl-umbelliferyl-β-D-N-acetylglucosamine (MUGS) than to 4-methyl-umbelliferyl-β-D-N-acetylglucosamine (MUG)

Molecule: CC1=N[C@@H]2[C@@H](O)[C@H](O)[C@@H](CO)O[C@@H]2S1 [Compound 107, NAG-thioazoline]
inhibition activity towards MUGS compared with MUG [3]: higher inhibition activity to MUG than to MUGS

Molecule: OC[C@H](O)[C@@H]1N[C@H](CO)[C@@H](O)[C@@H]1O [Compound 2, (1′R,2S,3R,4R,5R)-3,4-dihydroxy-2-[1′,2′-dihydroxy-ethyl]-5-hydroxymethyl-pyrrolidine]
inhibitory activity against β-glucosidase [1]: potent inhibitory activities
inhibitory activity against α-glucosidase [2]: potent inhibitory activities
Ki [8]: 4000 µM
Ki [9]: 85000 µM
